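Cultured in 96-well plates, cells were exposed to test compound for 48 hours across five concentrations. GI50 marks 50% less growth.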 The source made the active and inactive calls. Cut-off read from the data, not from the text of the source: active = GI50 up to about 1.1 µM and inactive = higher.
How the values were obtained:
Assay in all cases: NCI tumour cell line growth inhibition, 48 h
UO-31 = test system: UO-31
SF-295 = test system: SF-295
SK-MEL-2 = test system: SK-MEL-2
UACC-62 = test system: UACC-62
TK-10 = test system: TK-10
SN12C = test system: SN12C
HOP-92 = test system: HOP-92
786-0 = test system: 786-0
NCI-H23 = test system: NCI-H23
HCT-116 = test system: HCT-116
NCI-H460 = test system: NCI-H460
CAKI-1 = test system: CAKI-1
MOLT-4 = test system: MOLT-4
IGROV-1 = test system: IGROV-1
SF-268 = test system: SF-268
A498 = test system: A498
MCF7 = test system: MCF7
NCI-H226 = test system: NCI-H226
RXF 393 = test system: RXF 393
HOP-62 = test system: HOP-62

Measured: GI50

CN(CC(=O)O)c1ncc2c(n1)-c1ccccc1SC2
inactive: UO-31 > 100 µM | SF-295 > 100 µM | SK-MEL-2 > 100 µM | UACC-62 > 100 µM | TK-10 > 100 µM | SN12C > 100 µM | HOP-92 > 100 µM | 786-0 > 100 µM | NCI-H23 > 100 µM | HCT-116 > 100 µM | NCI-H460 > 100 µM | CAKI-1 > 100 µM | MOLT-4 > 100 µM | IGROV-1 > 100 µM | SF-268 > 100 µM | A498 > 100 µM | MCF7 69.8 µM

C=C1C(O)CC[C@]2(C)C1C1OC(C)(C)O[C@]13CC(=O)C(C)=C([C@H]1OC(C)(C)OC12)C3(C)C (stereo partly drawn)
inactive: UO-31 > 100 µM | SF-295 > 100 µM | UACC-62 > 100 µM | TK-10 > 100 µM | SN12C > 100 µM | 786-0 > 100 µM | NCI-H23 > 100 µM | HCT-116 > 100 µM | NCI-H460 > 100 µM | NCI-H226 > 100 µM | CAKI-1 > 100 µM | MOLT-4 58.6 µM | IGROV-1 > 100 µM | SF-268 > 100 µM | RXF 393 27.4 µM | HOP-62 > 100 µM | A498 23.1 µM | MCF7 65.8 µM

CCCOP(=O)(OCCC)OC(C(F)(F)F)C(F)(F)F
inactive: UO-31 > 100 µM | SK-MEL-2 > 100 µM | UACC-62 > 100 µM | TK-10 > 100 µM | SN12C > 100 µM | NCI-H23 > 100 µM | HCT-116 > 100 µM | NCI-H460 > 100 µM | NCI-H226 > 100 µM | MOLT-4 > 100 µM | RXF 393 44.9 µM | HOP-62 > 100 µM | A498 > 100 µM | MCF7 > 100 µM

O=C1CC(/C=C/c2ccco2)=C(O)C1=O
inactive: UO-31 20.7 µM | SF-295 19.5 µM | SK-MEL-2 16.4 µM | UACC-62 15.3 µM | TK-10 22.5 µM | SN12C 13.6 µM | HOP-92 13.8 µM | NCI-H23 11.6 µM | HCT-116 13.6 µM | NCI-H460 17.6 µM | NCI-H226 22 µM | CAKI-1 14.6 µM | MOLT-4 14 µM | IGROV-1 10.7 µM | SF-268 18.6 µM | RXF 393 9.59 µM | HOP-62 1.84 µM | MCF7 7.01 µM

CC(=O)OCCCC(NC(=O)OC(C)(C)C)C(=O)NC(CCCOC(C)=O)C(=O)NC(Cc1ccc([N+](=O)[O-])cc1)C(=O)NCC(=O)OCc1ccccc1 (stereo not drawn)
inactive: UO-31 16.1 µM | SF-295 11.9 µM | SK-MEL-2 15.4 µM | UACC-62 15.2 µM | TK-10 18.5 µM | SN12C 17.7 µM | HOP-92 18.4 µM | 786-0 18 µM | NCI-H23 14.3 µM | HCT-116 18.1 µM | NCI-H460 15.6 µM | NCI-H226 16.1 µM | CAKI-1 18.5 µM | MOLT-4 37.6 µM | IGROV-1 17.9 µM | SF-268 20.2 µM | RXF 393 13.1 µM | HOP-62 19.5 µM | MCF7 17.9 µM

CSc1ccc(-c2cc(-c3nc4ccccc4[nH]3)nc3[nH]c(-c4nc5ccccc5[nH]4)cc(=O)c23)cc1
inactive: UO-31 > 100 µM | SF-295 86.1 µM | SK-MEL-2 > 100 µM | UACC-62 92.5 µM | TK-10 > 100 µM | SN12C 71.1 µM | HOP-92 > 100 µM | 786-0 > 100 µM | NCI-H23 > 100 µM | HCT-116 39.4 µM | NCI-H460 52.1 µM | NCI-H226 84.5 µM | CAKI-1 > 100 µM | MOLT-4 > 100 µM | IGROV-1 > 100 µM | SF-268 49.2 µM | RXF 393 52.5 µM | HOP-62 84.5 µM | MCF7 34 µM

COc1ccc(/N=C2/SC(=N/N=c3\sc4ccccc4n3C)S/C2=N/c2ccc(OC)cc2)cc1
inactive: UO-31 > 100 µM | SF-295 51.8 µM | SK-MEL-2 > 100 µM | UACC-62 37.6 µM | TK-10 > 100 µM | SN12C > 100 µM | HOP-92 89.1 µM | 786-0 47.3 µM | NCI-H23 41.9 µM | HCT-116 29.8 µM | NCI-H460 > 100 µM | NCI-H226 49 µM | CAKI-1 > 100 µM | MOLT-4 13.1 µM | IGROV-1 > 100 µM | SF-268 > 100 µM | RXF 393 34 µM | HOP-62 31.6 µM | MCF7 > 100 µM

COc1ccc([C@H]2CC(=O)C[C@H](c3ccc(OC)cc3OC)C23C(=O)c2ccccc2C3=O)c(OC)c1
inactive: UO-31 > 100 µM | SF-295 > 100 µM | SK-MEL-2 > 100 µM | UACC-62 > 100 µM | TK-10 > 100 µM | SN12C > 100 µM | HOP-92 27.3 µM | 786-0 > 100 µM | NCI-H23 > 100 µM | HCT-116 > 100 µM | NCI-H460 > 100 µM | NCI-H226 > 100 µM | CAKI-1 > 100 µM | MOLT-4 > 100 µM | IGROV-1 > 100 µM | SF-268 > 100 µM | RXF 393 > 100 µM | HOP-62 > 100 µM | MCF7 > 100 µM

CN1N=C(c2ccncc2)OC1c1ccc(C(F)(F)F)cc1 (stereo not drawn)
inactive: UO-31 > 100 µM | SF-295 > 100 µM | SK-MEL-2 > 100 µM | UACC-62 > 100 µM | TK-10 > 100 µM | SN12C > 100 µM | 786-0 98.4 µM | NCI-H23 > 100 µM | HCT-116 > 100 µM | NCI-H460 > 100 µM | NCI-H226 39.1 µM | MOLT-4 > 100 µM | IGROV-1 > 100 µM | SF-268 > 100 µM | RXF 393 > 100 µM | HOP-62 82.8 µM | A498 > 100 µM | MCF7 > 100 µM

OC(c1nc2ccccc2s1)(C(F)(F)F)C(F)(F)F
inactive: UO-31 87.1 µM | SF-295 > 100 µM | SK-MEL-2 > 100 µM | UACC-62 > 100 µM | TK-10 > 100 µM | SN12C > 100 µM | 786-0 > 100 µM | NCI-H23 > 100 µM | HCT-116 > 100 µM | NCI-H460 > 100 µM | NCI-H226 > 100 µM | CAKI-1 > 100 µM | MOLT-4 > 100 µM | IGROV-1 > 100 µM | SF-268 > 100 µM | RXF 393 > 100 µM | HOP-62 > 100 µM | A498 > 100 µM | MCF7 > 100 µM

O=C1/C(=C/c2cccc([N+](=O)[O-])c2)CCCc2ccccc21
inactive: UO-31 16.4 µM | SF-295 14.6 µM | SK-MEL-2 11 µM | UACC-62 10.1 µM | TK-10 15.7 µM | SN12C 17.3 µM | HOP-92 14.4 µM | 786-0 13.7 µM | NCI-H23 15.8 µM | HCT-116 5.4 µM | NCI-H460 18.5 µM | NCI-H226 16.2 µM | CAKI-1 16.5 µM | MOLT-4 4.95 µM | IGROV-1 11 µM | SF-268 4.82 µM | HOP-62 15.6 µM | MCF7 3.92 µM

CCN(CC)c1ccc(C2SCC(=O)N2c2ccc(NC(=O)c3ccc(N4C(=O)CSC4c4ccc(N(CC)CC)cc4)cc3)cc2)cc1 (stereo not drawn)
inactive: UO-31 > 100 µM | SF-295 30.1 µM | SK-MEL-2 > 100 µM | UACC-62 > 100 µM | TK-10 > 100 µM | SN12C > 100 µM | HOP-92 > 100 µM | 786-0 > 100 µM | NCI-H23 > 100 µM | HCT-116 > 100 µM | NCI-H460 > 100 µM | CAKI-1 > 100 µM | MOLT-4 29.7 µM | IGROV-1 > 100 µM | SF-268 > 100 µM | RXF 393 > 100 µM | HOP-62 89.7 µM | MCF7 79.4 µM

Cc1cccc(NC(=O)/C=C/c2ccccc2)c1C
inactive: SF-295 > 100 µM | SK-MEL-2 > 100 µM | UACC-62 > 100 µM | TK-10 > 100 µM | SN12C > 100 µM | 786-0 > 100 µM | NCI-H23 > 100 µM | HCT-116 > 100 µM | NCI-H460 > 100 µM | NCI-H226 > 100 µM | CAKI-1 > 100 µM | MOLT-4 > 100 µM | SF-268 > 100 µM | HOP-62 85.9 µM | A498 > 100 µM | MCF7 > 100 µM

CN1Cc2cc(O)c(O)cc2C(O)C1 (stereo not drawn)
inactive: UO-31 83 µM | SF-295 > 100 µM | SK-MEL-2 > 100 µM | UACC-62 > 100 µM | TK-10 > 100 µM | SN12C > 100 µM | HOP-92 > 100 µM | NCI-H23 > 100 µM | HCT-116 > 100 µM | NCI-H460 > 100 µM | NCI-H226 > 100 µM | CAKI-1 > 100 µM | MOLT-4 > 100 µM | IGROV-1 > 100 µM | SF-268 > 100 µM | RXF 393 > 100 µM | HOP-62 > 100 µM | MCF7 > 100 µM

Cc1ccc(OCC2OC(C#N)C(Oc3ccc(C)cc3)C2Oc2ccc(C)cc2)cc1 (stereo not drawn)
inactive: UO-31 > 100 µM | SF-295 > 100 µM | SK-MEL-2 51.8 µM | UACC-62 > 100 µM | SN12C > 100 µM | 786-0 > 100 µM | NCI-H23 > 100 µM | HCT-116 > 100 µM | NCI-H460 > 100 µM | NCI-H226 > 100 µM | CAKI-1 > 100 µM | MOLT-4 > 100 µM | IGROV-1 > 100 µM | SF-268 > 100 µM | RXF 393 > 100 µM | HOP-62 > 100 µM | A498 > 100 µM | MCF7 > 100 µM

From ChEMBL document CHEMBL1201862, “PubChem BioAssay data set” (2004)
